{"source": "patent US20130184337A1", "about": "“SODIUM ASCORBATE STIMULATION OF ELASTOGENESIS” (THE HOSPITAL FOR SICK CHILDREN, priority 2012, published 2013)", "key": {"[1]": {"system": "normal dermal fibroblasts", "assay": "Collagen fiber deposition (immuno-staining of collagen type I, morphometry)", "format": "cell-based, human", "method": "(§1) Cell Cultures—Fibroblasts initially grew out from the explants of these full thickness skin biopsies and were maintained. The primary cultures of fat-derived fibroblasts obtained from Thermogenesis (Rancho Cordova, Calif.) were also tested. In all described experiments, 2-4 passages of both kinds of fibroblasts were used. In experiments aimed at assessing ECM production, cells were initially plated at a concentration of 100,000 cells/dish. Confluent cultures were then maintained either in serum-free medium (DMEM) or in medium supplemented with 5% FBS in the presence of different reagents that were added 1 hour before treatments with SA.\n(§2) Immuno-staining—All cultures maintained in the presence and absence of indicated reagents were either fixed in cold 100% methanol at −20° C. (for detection of elastin) or in 4% paraformaldehyde at room temperature (for detection of collagen I). The multiple parallel cultures were then incubated with 10 μg/ml of polyclonal antibody to tropoelastin (Elastin Products, Owensville, Mich.), or polyclonal antibody to collagen type I (Chemicon, Temecula, Calif.). Cultures were then incubated with the respective fluorescein-conjugated goat anti-rabbit, goat anti-mouse, or rabbit anti-goat secondary antibodies. Nuclei were counterstained with propidium iodide (Sigma, Sigma, St. Louis, Mo.). All of the cultures were then examined with a Nikon Eclipse E1000 microscope attached to a cooled CCD camera (QImaging, Retiga EX) and analyzed by the computer-generated morphometric analysis system (Image-Pro Plus software, Media Cybernetics, Silver Springs, Md.) as previously described."}, "[2]": {"system": "fibroblasts derived from dermal stretch marks", "assay": "Collagen and elastic fiber deposition in stretch-mark fibroblast cultures", "format": "cell-based, human", "details": "200 μM, 24 hour-old cultures", "method": "Cell Cultures-Fibroblasts initially grew out from the explants of these full thickness skin biopsies and were maintained. The primary cultures of fat-derived fibroblasts obtained from Thermogenesis (Rancho Cordova, Calif.) were also tested. In all described experiments, 2-4 passages of both kinds of fibroblasts were used. In experiments aimed at assessing ECM production, cells were initially plated at a concentration of 100,000 cells/dish. […] Immuno-staining-All cultures maintained in the presence and absence of indicated reagents were either fixed in cold 100% methanol at -20° C. (for detection of elastin) or in 4% paraformaldehyde at room temperature (for detection of collagen I). The multiple parallel cultures were then incubated with 10 μg/ml of polyclonal antibody to tropoelastin (Elastin Products, Owensville, Mich.), or polyclonal antibody to collagen type I (Chemicon, Temecula, Calif.). Cultures were then incubated with the respective fluorescein-conjugated goat anti-rabbit, goat anti-mouse, or rabbit anti-goat secondary antibodies. Nuclei were counterstained with propidium iodide (Sigma, Sigma, St. Louis, Mo.). All of the cultures were then examined with a Nikon Eclipse […] microscope attached to a cooled CCD camera (QImaging, Retiga EX) and analyzed by the computer-generated morphometric analysis system (Image-Pro Plus software, Media Cybernetics, Silver Springs, Md.) as previously described. Quantitative Assays of Insoluble Elastin-Fibroblasts were grown to confluency in 35-mm culture dishes (100,000 cells/dish). Next, 2 μCi of [3H]-valine/ml (Amersham Biosciences Ltd. Oakville, Canada), were added to each dish along with or without the indicated treatments. At the end of each experiment, the levels of metabolically labeled NaOH-insoluble elastin present in individual cultures were assayed and normalized per their DNA content."}, "[3]": {"system": "reactive oxygen species (ROS)", "assay": "Intracellular ROS with CM-H2DCFDA probe (fluorescence microscope, flow cytophotometry)", "format": "cell-based, human", "method": "Quantification of Intracellular free radicals-reactive oxygen species (ROS)—To assess the levels of ROS, quadruplicate cultures of normal skin fibroblasts were exposed to 10 μM of ROS-sensitive CM-H2DCFDA fluorescent probe (Molecular Probes, Eugene, Oreg.) for 30 minutes. This probe passively diffuses into the cell interior and only upon oxidation is a fluorescent product released that can be visualized under a fluorescent microscope or captured by flow cytophotometry when excited at 480 nm. Fibroblasts were then maintained for 30 minutes in the presence or absence of 400 μM probenecid, then incubated either for 2 or 24 hours with and without 100 μM AA or 100 μM SA. At the end of these periods the images were captured using a fluorescent microscope under identical parameters of contrast and brightness. The ROS production was also assessed by flow cytophotometry (λ excitation 480 nm; λ emission 520 nm), using FACSCalibur, Beckton Dickinson Instrument."}, "[4]": {"system": "normal dermal fibroblasts", "assay": "Elastic fiber deposition (immuno-staining morphometry, [3H]-valine insoluble elastin) in monolayer cultures", "format": "cell-based, human", "details": "for elastogenic effects of 100 μM SA after pre-treatment with the inhibitor (mRNA, tropoelastin, insoluble elastin, elastic fibers): inhibitor pre-incubation then 100 μM SA, probenecid 400 μM", "method": "as §1, with “cells/dish.” for “cells/dish. Confluent cultures were then maintained either in serum-free medium (DMEM) or in medium supplemented with 5% FBS in the presence of different reagents that were added 1 hour before treatments with SA.”\nas §2\nQuantitative Assays of Insoluble Elastin—Fibroblasts were grown to confluency in 35-mm culture dishes (100,000 cells/dish). Next, 2 μCi of [3H]-valine/ml (Amersham Biosciences Ltd. Oakville, Canada), were added to each dish along with or without the indicated treatments. At the end of each experiment, the levels of metabolically labeled NaOH-insoluble elastin present in individual cultures were assayed and normalized per their DNA content."}, "explants of dermal scars": {"system": "explants of dermal scars", "assay": "Organ culture of skin explants (histochemistry, insoluble elastin)", "format": "cell-based, human", "details": "1 mM DMOG alone", "method": "Organ culture of skin explants—Fragments of normal skin, stretch-marked skin and dermal scars collected during plastic surgery procedures were cut into multiple 4 mm2 pieces and maintained for 7 days in DMEM medium containing 5% FBS, […] The parallel quadruplicate explants from each experimental group were additionally maintained in the presence 2 μCi of [3H]-valine/ml and then subjected to the assay of insoluble elastin. The parallel explants from each experimental groups were also evaluated after pentachrome Movat's staining which allows for clear marking of elastic fibers. In each experimental group, 50 sections derived from quadruplicate explants were analyzed."}, "IGF-1 receptor": {"molecular_target": "T1, IGF-1 receptor (Homo sapiens, UniProt P08069)", "T1 construct": "immuno-precipitated with antibody to β subunit of IGF-1R and detected by Western blotting with anti-phospho-tyrosine antibody; endogenous in cells; host or cells: cultured dermal fibroblasts", "T1 sequence (P08069 741-1367 limits assumed)": "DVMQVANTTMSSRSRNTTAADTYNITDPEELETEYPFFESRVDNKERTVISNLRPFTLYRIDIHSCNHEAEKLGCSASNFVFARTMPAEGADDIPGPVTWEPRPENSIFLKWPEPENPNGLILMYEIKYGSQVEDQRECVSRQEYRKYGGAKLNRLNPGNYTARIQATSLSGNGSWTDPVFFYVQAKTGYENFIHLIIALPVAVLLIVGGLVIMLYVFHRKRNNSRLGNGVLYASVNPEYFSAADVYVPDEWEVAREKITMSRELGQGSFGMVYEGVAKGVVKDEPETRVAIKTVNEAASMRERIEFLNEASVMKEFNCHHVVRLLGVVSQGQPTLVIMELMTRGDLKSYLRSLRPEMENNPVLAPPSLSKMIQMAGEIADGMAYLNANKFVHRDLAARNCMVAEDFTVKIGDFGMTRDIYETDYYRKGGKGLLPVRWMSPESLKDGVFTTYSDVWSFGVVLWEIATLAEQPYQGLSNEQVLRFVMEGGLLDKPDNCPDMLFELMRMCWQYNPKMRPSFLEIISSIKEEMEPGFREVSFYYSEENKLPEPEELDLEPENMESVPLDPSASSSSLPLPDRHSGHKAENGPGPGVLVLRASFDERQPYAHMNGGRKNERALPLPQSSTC", "T1 sequence (P08069 31-736 partner limits assumed)": "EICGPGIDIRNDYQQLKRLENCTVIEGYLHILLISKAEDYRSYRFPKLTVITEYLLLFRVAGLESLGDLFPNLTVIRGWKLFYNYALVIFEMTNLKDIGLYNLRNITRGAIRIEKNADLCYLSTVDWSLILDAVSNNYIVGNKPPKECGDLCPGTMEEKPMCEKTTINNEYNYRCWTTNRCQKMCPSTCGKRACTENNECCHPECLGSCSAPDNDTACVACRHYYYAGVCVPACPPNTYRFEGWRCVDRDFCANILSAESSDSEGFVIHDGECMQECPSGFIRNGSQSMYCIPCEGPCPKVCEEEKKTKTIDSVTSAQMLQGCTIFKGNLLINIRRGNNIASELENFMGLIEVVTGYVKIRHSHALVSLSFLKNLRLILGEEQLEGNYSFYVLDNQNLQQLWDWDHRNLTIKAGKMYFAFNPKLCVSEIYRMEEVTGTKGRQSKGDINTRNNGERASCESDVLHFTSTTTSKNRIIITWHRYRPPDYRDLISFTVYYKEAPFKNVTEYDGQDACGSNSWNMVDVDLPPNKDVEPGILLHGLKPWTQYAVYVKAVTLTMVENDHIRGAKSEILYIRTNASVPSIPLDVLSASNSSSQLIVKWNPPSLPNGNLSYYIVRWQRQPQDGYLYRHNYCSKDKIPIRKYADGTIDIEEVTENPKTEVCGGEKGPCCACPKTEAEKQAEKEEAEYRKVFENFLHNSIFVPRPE", "assay": "IGF-1R phosphorylation (immuno-precipitation, anti-phospho-tyrosine Western blot)", "format": "cell-based", "details": "pretreated and maintained with inhibitor, 100 μM SA", "method": "At the end of each experiment cells were submerged in the lysis buffer containing a broad-range phosphatase inhibitor. The polyclonal antibodies recognizing either the β subunits of the IGF-IR or the β subunit of the insulin receptor were immobilized on separate sets of the IgG-bearing magnetic beads (Invitrogen Canada Inc, Burlington, ON) and then incubated for 1 hour with the aliquots of the cell lysates containing 400 μg of protein as described in the manufacturer protocol. The beads bearing the resulting immuno-precipitation products were re-suspended in sample buffer and the released proteins were resolved with SDS-PAGE and subjected to Western blotting with a monoclonal anti-p-Tyr (PY99) antibody from Santa Cruz Biotechnology Inc. (Santa Cruz, Calif.) and then with HRP-conjugated goat anti-mouse secondary antibody."}, "[5]": {"details": "DMOG added along with 100 μM SA"}}, "note": "Entries after “also recorded” stand apart in the source; their conditions may differ."}
{"compound": "O=C1O[C@H]([C@@H](O)CO)C(O)=C1O", "note": "[AA, L-ascorbic acid]", "values": [{"measurement": "deposition of immuno-detected collagen fibers", "setting": "[1]; 100 μM, 24-hour-old cultures, 5% FBS", "result": "stimulated collagen deposition"}, {"measurement": "production of elastic fibers / elastogenesis", "setting": "[2]", "result": "selective inhibition of new elastogenesis"}, {"measurement": "levels of intracellular ROS", "setting": "[3]; 100 μM, 2 hours", "result": "did not display any decrease in ROS contents"}]}
{"compound": "COc1ccc(CNc2nc(N(CCO)CCO)nc3c2ncn3C(C)C)cc1", "note": "[CVT313, reference compound]", "values": [{"measurement": "elastogenic effects of 100 μM SA after pre-treatment with the inhibitor (mRNA, tropoelastin, insoluble elastin, elastic fibers)", "setting": "[4]; 5% FBS", "result": "eliminated elastogenic effects of 100 μM SA"}]}
{"compound": "COC(=O)CNC(=O)C(=O)OC", "note": "[DMOG, reference compound]", "values": [{"measurement": "deposition of collagen fibers", "setting": "[1]; [5]", "result": "inhibits the deposition of collagen fibers"}, {"measurement": "elastic fibers in ECM", "setting": "explants of dermal scars", "result": "did not revealed any elastic fibers"}, {"measurement": "SA-enhanced production of elastic fibers", "setting": "[4]; [5]", "result": "did not interfere with the enhanced production of elastic fibers; also recorded: does not diminish the elastogenic effect of SA"}]}
{"compound": "CC(C)(C)n1nc(-c2ccc(Cl)cc2)c2c(N)ncnc21", "note": "[PP2, reference compound]", "values": [{"measurement": "SA-induced enhancement of IGF-1R phosphorylation in inhibitor-pretreated cultures", "setting": "IGF-1 receptor", "result": "eliminated"}, {"measurement": "elastogenic effects of 100 μM SA after pre-treatment with the inhibitor (mRNA, tropoelastin, insoluble elastin, elastic fibers)", "setting": "[4]; 5% FBS", "result": "did not trigger elastogenic effects; also recorded: abolish all elastogenic effects"}]}
{"compound": "COc1cc([C@@H]2c3cc4c(cc3[C@H](O)[C@H]3COC(=O)[C@@H]23)OCO4)cc(OC)c1OC", "note": "[PPP, reference compound]", "values": [{"measurement": "SA-induced enhancement of IGF-1R phosphorylation in inhibitor-pretreated cultures", "setting": "IGF-1 receptor", "result": "eliminated"}]}
{"compound": "CCCN(CCC)S(=O)(=O)c1ccc(C(=O)O)cc1", "note": "[probenecid, Probenecid, reference compound]", "values": [{"measurement": "basic deposition of elastic fibers", "setting": "[4]; 100-400 μM probenecid alone, 24 hours, versus untreated control", "result": "did not demonstrate any decrease in their basic deposition of elastic fibers"}, {"measurement": "elastogenic effects of 100 μM SA after pre-treatment with the inhibitor (mRNA, tropoelastin, insoluble elastin, elastic fibers)", "setting": "[4]; 5% FBS", "result": "eliminated the elastogenetic effects of 100 μM SA; also recorded: averts the induction of elastogenic effects"}, {"measurement": "SA-induced decrease of ROS after probenecid pre-incubation", "setting": "[3]; probenecid pre-incubation, then 100 μM SA for 2 hours", "result": "could not be observed"}]}
{"compound": "IGF-1: human IGF-I from Sigma-Aldrich, elastogenic stimulator", "values": [{"measurement": "elastogenic effects", "setting": "[4]; 50 ng/ml exogenous IGF-1, 24-hour treatment, 5% FBS", "result": "strong elastogenic effects"}]}
{"compound": "TGF-[…]1: elastogenic stimulator (TGF-β1, Greek letter lost)", "values": [{"measurement": "elastogenesis", "setting": "[4]; 1 ng/ml TGF-[…]1", "result": "increase in elastogenesis"}]}
